In patent US20080103195A1, “COMPOUNDS FROM ANTRODIA CAMPHORATA FOR INHIBITING THE GROWTH OF CANCER TUMOR CELLS” (priority 2006, published 2008):
In brackets after ≈: the same amount, converted by molar mass.

What was measured:
[1] = system: LNCaP human prostate cancer cells; assay: In vitro activity assay of adjuvant treatment of prostate cancer tumor cells using Taxol (MTT assay); assay type: cell-based
Procedure: (§1) Doses of 4,7-dimethoxy-5-methy-1,3-benzodioxole were 30, 10, 3, 1, 0.3, 0.1, and 0.03 μg/ml (the experimental group) and 0 μg/ml of 4,7-dimethoxy-5-methy-1,3-benzodioxole (the control group) for each well incubated at 37° C., 5% CO2 for 48 hours. 2.5 mg/ml MTT dye is added to each well without light and incubated for 4 hours, then treated with 100 μl lysis buffer to stop the reaction.

[2] = system: LNCaP human prostate cancer cells; assay: In vitro assay of anti-tumor activity of prostate cancer (MTT assay); assay type: cell-based; settings: 48 h
Procedure: (§2) According to anti-tumor agents screening model of National Cancer Institute (NCI) of the United States National Institutes of Health, the assay is processed by adding 4,7-dimethoxy-5-methy-1,3-benzodioxole into the culture medium of LNCaP and DU-145 human prostate cancer tumor cells respectively.
(§3) Doses of ethyl alcohol extract of Antrodia camphorata (the control group) were respectively 30, 10, 3, 1, and 0.3 μg/ml for each well and 4,7-dimethoxy-5-methy-1,3-benzodioxole (the experimental group) were respectively 30, 10, 3, 1, and 0.3 μg/ml for each well incubated at 37° C., 5% CO2 for 48 hours. 2.5 mg/ml MTT dye is added to each well without light and incubated for 4 hours, then treated with 100 μl lysis buffer to stop the reaction.

[3] = system: DU-145 human prostate cancer cells; assay: as above; assay type: cell-based; settings: DU-145, 48 h
Procedure: as §2, §3

[4] = system: MCF-7 human breast cancer cells; assay: In vitro assay of anti-tumor activity of breast cancer (MTT assay); assay type: cell-based; settings: MCF7, 48 h
Source text: (§4) According to anti-tumor agents screening model of National Cancer Institute (NCI) of the United States National Institutes of Health, the assay is processed by adding 4,7-dimethoxy-5-methy-1,3-benzodioxole into the culture medium of MCF-7 human tumor cells and MDA-MB-231 human tumor cells respectively. The assay of tumor cell viability can be evaluated by using the conventional MTT assay, and MCF-7 and MDA-MB-231 are human breast cancer tumor cell lines.
(§5) MTT assay is a conventional assay used to analyze the cell proliferation, percentage of viable cells, and cytotoxicity. MTT (3-(4,5-dimethylthiazole-2-yl)-2,5-diphenyl tetrazolium bromide) is a yellow dye, and is metabolized only in living cells by the mitochondrial succinate-tetrazolium reductase system to produce blue violet insoluble formazan products, thereby providing a measure of the number of viable cells upon generation of formazan products in viable cells.
as §3, with “3, 1, 0.3, 0.1, and 0.03” for “3, 1, and 0.3”, “0.1, and 0.03 μg/ml for” for “1, and 0.3 μg/ml for”

[5] = system: MDA-MB-231 human breast cancer cells; assay: as above; assay type: cell-based; settings: MDA-MB-231, 48 h
Source text: as §4, §5
as §3, with “3, 1, 0.3, 0.1, and 0.03” for “3, 1, and 0.3”, “0.1, and 0.03 μg/ml for” for “1, and 0.3 μg/ml for”

[6] = system: Hep 3B human liver cancer cells; assay: In vitro assay of anti-tumor activity of liver cancer (MTT assay); assay type: cell-based; settings: Hep3B, 48 h
Procedure: (§6) According to anti-tumor agents screening model of National Cancer Institute (NCI) of the United States National Institutes of Health, the assay is processed by adding 4,7-dimethoxy-5-methy-1,3-benzodioxole into the culture medium of Hep 3B and Hep G2 human liver cancer tumor cells respectively.
as §3, with “of Antrodia camphorate (the control” for “of Antrodia camphorata (the control”, “3, 1, 0.3, 0.1, and 0.03” for “3, 1, and 0.3”, “0.1, and 0.03 μg/ml for” for “1, and 0.3 μg/ml for”

[7] = system: Hep G2 human liver cancer cells; assay: as above; assay type: cell-based; settings: HepG2, 48 h
Procedure: as §6
as §3, with “of Antrodia camphorate (the control” for “of Antrodia camphorata (the control”, “3, 1, 0.3, 0.1, and 0.03” for “3, 1, and 0.3”, “0.1, and 0.03 μg/ml for” for “1, and 0.3 μg/ml for”

[8] = system: Hep 3B human liver cancer cells; settings: 0.0043 μg/ml Lovastatin alone (control group)
Procedure: (§7) First, Hep 3B human liver cancer cells and Hep G2 human liver cancer cells were respectively cultured in culture medium supplemented with fetal bovine serum for 24 hours. The proliferative cells were washed with PBS once, and treated with one-fold trypsin/EDTA solution. After centrifuged at 1,200 rpm for 5 min, the supernatant was removed and the cell pellet was transferred to new tubes and treated with 10 ml medium to suspend the cells again. Before the assay, the Hep 3B cell line was treated with 0.0043 μg/ml Lovastatin for 72 hours and the Hep G2 cell line was treated with 0.0017 μg/ml Taxol for 72 hours, and then plated in 96 well microplates. Doses of 4,7-dimethoxy-5-methy-1,3-benzodioxole were 30, 10, 3, 1, 0.3, 0.1, and 0.03 μg/ml (the experimental group) and 0 μg/ml of 4,7-dimethoxy-5-methy-1,3-benzodioxole (the control group) for each well incubated at 37° C., 5% CO2 for 48 hours. 2.5 mg/ml MTT dye is added to each well without light and incubated for 4 hours, then treated with 100 μl lysis buffer to stop the reaction. Subsequently, absorption was measured on an enzyme immunoassay analyzer at 570 nm for the measurement of viable cell number. The concentration of the drug measured at 50% of the cell death (i.e. IC50 value) was determined and calculated.

[9] = system: Hep G2 human liver cancer cells; settings: Hep G2, 0.0017 μg/ml Taxol alone (control group)
Procedure: as §7

[10] = system: DU-145 human prostate cancer cells; assay: In vitro activity assay of adjuvant treatment of prostate cancer tumor cells using Taxol (MTT assay); assay type: cell-based; settings: DU-145, 0.0043 μg/ml Taxol alone (control group)
Procedure: as §1

[11] = system: MCF-7 human breast cancer cells; assay: In vitro activity assay of adjuvant treatment of breast cancer tumor cells using Taxol (MTT assay); assay type: cell-based; settings: MCF-7, 0.0017 μg/ml Taxol alone (control group, 0 μg/ml benzodioxole)
Procedure: as §1

[12] = system: MDA-MB-231 human breast cancer cells; assay: as above; assay type: cell-based; settings: MDA-MB-231, 0.0017 μg/ml Taxol alone (control group, 0 μg/ml benzodioxole)
Procedure: as §1

SMILES: COc1cc(C)c(OC)c2c1OCO2 [4,7-dimethoxy-5-methy-1,3-benzodioxole]
- IC50 ([1]; Homo sapiens): 1.16 µg/mL
- IC50 [2]: 4.46 µg/mL (≈ 22.7 µM)
- IC50 [3]: 2.21 µg/mL (≈ 11.3 µM)
- IC50 [4]: 1.72 µg/mL (≈ 8.77 µM)
- IC50 [5]: 0.992 µg/mL (≈ 5.06 µM)
- IC50 [6]: 0.016 µg/mL (≈ 0.0815 µM)
- IC50 [7]: 2.46 µg/mL (≈ 12.5 µM)

SMILES: CC[C@H](C)C(=O)O[C@H]1C[C@@H](C)C=C2C=C[C@H](C)[C@H](CC[C@@H]3C[C@@H](O)CC(=O)O3)[C@H]21 [Lovastatin]
- The ratio of viable cells (%) [8]: 69 ± 1%

SMILES: CC(=O)O[C@H]1C(=O)[C@@]2(C)[C@H]([C@H](OC(=O)c3ccccc3)[C@]3(O)C[C@H](OC(=O)[C@H](O)[C@@H](NC(=O)c4ccccc4)c4ccccc4)C(C)=C1C3(C)C)[C@]1(OC(C)=O)CO[C@@H]1C[C@@H]2O [Taxol]
- The ratio of viable cells (%) [9]: 86 ± 1%
- The ratio of viable cells (%) ([1]; 0.0017 μg/ml Taxol alone (control group)): 55 ± 1%
- The ratio of viable cells (%) [10]: 71 ± 1%
- The ratio of viable cells (%) [11]: 69 ± 1%
- The ratio of viable cells (%) [12]: 86 ± 1%
